Experimental data from patent publication US11780852B2, “Methods for treating Crohn's disease using 3-((1R,3s,5S)-3-((7-((5-methyl-1H-pyrazol-3-yl)amino)-1,6-naphthyridin-5-yl)amino)-8-azabicyclo[3.2.1]octan-8-yl)propanenitrile” (priority 2015, dated 2023).
Like-named read-outs stand apart in the source and are kept apart here.

Tests used:
[1] = Determination of absorption in cannulated rats; assay type: in vivo, Sprague Dawley rats; conditions: rat, oral dose
Description: Drug levels were determined using an LC-MS-MS method. The resulting drug levels were used to compute the IV pharmacokinetic parameters: AUC IV and Dose IV. (2) Rats that have been cannulated in their portal vein (PV) and also in their jugular vein (JV) were dosed orally with test compound. Following oral dosing, plasma samples were typically collected from 0-6 hr from both the portal vein and the jugular vein. Drug levels were determined using an LC-MS-MS method. The resulting drug levels were used to compute the following pharmacokinetic parameters: AUC PO PV, AUC PO JV, and Dose PO. Using data derived from the above studies, the oral bioavailability F %, and the quantities Fa % and Fh % were calculated from the following formulas: F %=(AUC PO JV/AUC IV)*(Dose IV/Dose PO)*100 Fa %=(AUC PO PV/AUC IV)*(Dose IV/Dose PO)*100 Fh %=AUC PO JV/AUC PO PV where: AUC PO JV=Area under the curve following oral dose and plasma collected from the jugular vein AUC PO PV=Area under the curve following oral dose and plasma collected from the portal vein AUC IV=Area under the curve following an intravenous dose Dose IV=Intravenous Dose in mg/kg Dose PO=Oral Dose in mg/kg

[2] = tested on: oxazolone-induced colitis; experiment: Mouse model of oxazolone-induced colitis; assay type: in vivo, BALB/C mice; conditions: PO, 1, 3, and/or 10 mg/kg BID (doses up to 10 mg/kg BID)
Description: Assay 7: Mouse Model of Oxazalone-Induced Colitis
Oxazolone-induced colitis is an experimental model that has a histological resemblance to human ulcerative colitis (Heller et al. Immunology, 2002, 17, 629-638). Adult BALB/C mice from Harlan were used in the assay. On day 1, animals were lightly anesthetized with isoflurane and the hairs between the shoulder were carefully removed before oxazolone (4%, 150 μL, 4:1 acetone:olive oil formulation) or vehicle solution was slowly applied for skin sensitization. Seven days after skin sensitization, the mice were fasted overnight, anesthetized with isoflurane inhalation, and a 1 mL syringe equipped with a 3.5-F catheter, filled with oxazolone solution, was inserted carefully about 4 cm into the colon of the mouse. Following insertion, 50 μL of the oxazolone solution (1%, 1:1 ethanol:water formulation) was injected very slowly (over 30 sec using an injection pump) into the colon. The catheter was removed and the mice were held vertically (head down) for 2 min to ensure that the entire oxazolone solution remained inside the colon. Drug treatment (PO, BID or TID) or vehicle was initiated a day prior to the oxazolone intrarectal (IR) challenge. Two-day post oxazolone intrarectal challenge, the Disease Activity Index (DAI) was assessed by treatment-blinded experimenters for each mouse according to the criteria score: stool consistency score (0, normal; 2, loose; 4, diarrhea), gross bleeding score (0, absence; 2, blood tinged; 4, presence), and weight loss score (0, none; 1, 1%-5%; 2, 5%-10^%; 3, 10%-20%; 4, more than 20%); DAI=average of (stool consistency score+gross bleeding score+weight loss score).
Selected compounds of the invention were tested in the assay. Efficacy in the model is evidenced by a decrease in DAI score as compared with the score from vehicle treated animals.

[3] = tested on: splenic NK, B and T cells; experiment: Immunosuppression effects in mouse splenic natural killer (NK) cells; assay type: in vivo, Balb/C mice; conditions: mouse, PO BID three days
Description: Assay 8: Immunosuppression Effects in Mouse Splenic Natural Killer (NK) Cells Depletion of mouse splenic cells is an experimental model of immunosuppression (Kudlacz et al., Am. J. of Transplantation, 2004, 4, 51-57). […] Adult male Balb/C mice (12-14 weeks of age) from Harlan were used for the study. […] Spleens were harvested 1 or 2 h post last dose and crushed immediately for cell subtype staining. Prior to fixation, fluorophore-labelled antibodies for CD19 (FITC; B cells), CD3e (PE; pan T cells) and DX5 (APC; NK cells) were incubated with splenocyte samples from each animal to allow for simultaneous, multiple subtype % analysis on the flow cytometer. The number of total spleen cells for each animal was measured by Scepter™ 2.0 Handheld Automated Cell Counter. The absolute number of lymphocyte subtype population (e.g., splenic B, T and NK cells) was calculated from the percentage of each subtype times total spleen cells for each animal. A one way ANOVA, with Dunnett's post hoc test, was used to compare the splenic lymphocytes number of the vehicle and test compound groups. The a level was set at p<0.05. Data were presented as the mean±SEM for each group.

[4] = tested on: IL-13 induced STAT6 phosphorylation in BEAS-2B human lung epithelial cells
[5] = tested on: IL-4 induced STAT6 phosphorylation in THP-1 human monocytic cells
JAK1 = JAK1 (Homo sapiens (Human), UniProt P23458); assay type: biochemical
Description: (§1) Assay 1: Biochemical JAK and Off-Target Kinase Assays
(§2) A panel of four LanthaScreen JAK biochemical assays (JAK1, 2, 3 and Tyk2) were carried in a common kinase reaction buffer (50 mM HEPES, pH 7.5, 0.01% Brij-35, 10 mM MgCl2, and 1 mM EGTA). Recombinant GST-tagged JAK enzymes and a GFP-tagged STAT1 peptide substrate were obtained from Life Technologies.
(§3) Serially diluted compounds were pre-incubated with each of the four JAK enzymes and the substrate in white 384-well microplates (Corning) at ambient temperature for 1 h. ATP was subsequently added to initiate the kinase reactions in 10 μL total volume, with 1% DMSO. […] Kinase reactions were allowed to proceed for 1 hour at ambient temperature before a 10 μL preparation of EDTA (10 mM final concentration) and Tb-anti-pSTAT1 (pTyr701) antibody (Life Technologies, 2 nM final concentration) in TR-FRET dilution buffer (Life Technologies) was added. The plates were allowed to incubate at ambient temperature for 1 h before being read on the EnVision reader (Perkin Elmer).
(§4) Results were expressed as pIC50 (negative logarithm of IC50) and subsequently converted to pKi (negative logarithm of dissociation constant, Ki) using the Cheng-Prusoff equation.

[6] = 5% to 90% relative humidity, room temperature; listed as Crystalline 3-(1R,3s,5S)-3-((7-((5-methyl-H-pyrazol-3-yl)amino)-1,6-naphthyridi))
Description: A weighed sample was used and the humidity was lowest possible value (close to 0% RH) at the start of the analysis. The DMS analysis consisted of an initial drying step (0% RH) for 120 minutes, followed by two cycles of sorption and desorption with a scan rate of 5% RH/step over the humidity range of 5% RH to 90% RH. The DMS run was performed isothermally at 25° C.

TYK2 = TYK2 (Homo sapiens (Human), UniProt P29597); assay type: biochemical
Description: as §1, §2, §3, §4

JAK2 = JAK2 (Homo sapiens (Human), UniProt O60674); assay type: biochemical
Description: as §1, §2, §3, §4

[7] = BEAS-2B cells, IL-13 induced STAT6 phosphorylation
[8] = THP-1 cells, IL-4 induced STAT6 phosphorylation

Sequence of JAK1 (P23458 whole entry): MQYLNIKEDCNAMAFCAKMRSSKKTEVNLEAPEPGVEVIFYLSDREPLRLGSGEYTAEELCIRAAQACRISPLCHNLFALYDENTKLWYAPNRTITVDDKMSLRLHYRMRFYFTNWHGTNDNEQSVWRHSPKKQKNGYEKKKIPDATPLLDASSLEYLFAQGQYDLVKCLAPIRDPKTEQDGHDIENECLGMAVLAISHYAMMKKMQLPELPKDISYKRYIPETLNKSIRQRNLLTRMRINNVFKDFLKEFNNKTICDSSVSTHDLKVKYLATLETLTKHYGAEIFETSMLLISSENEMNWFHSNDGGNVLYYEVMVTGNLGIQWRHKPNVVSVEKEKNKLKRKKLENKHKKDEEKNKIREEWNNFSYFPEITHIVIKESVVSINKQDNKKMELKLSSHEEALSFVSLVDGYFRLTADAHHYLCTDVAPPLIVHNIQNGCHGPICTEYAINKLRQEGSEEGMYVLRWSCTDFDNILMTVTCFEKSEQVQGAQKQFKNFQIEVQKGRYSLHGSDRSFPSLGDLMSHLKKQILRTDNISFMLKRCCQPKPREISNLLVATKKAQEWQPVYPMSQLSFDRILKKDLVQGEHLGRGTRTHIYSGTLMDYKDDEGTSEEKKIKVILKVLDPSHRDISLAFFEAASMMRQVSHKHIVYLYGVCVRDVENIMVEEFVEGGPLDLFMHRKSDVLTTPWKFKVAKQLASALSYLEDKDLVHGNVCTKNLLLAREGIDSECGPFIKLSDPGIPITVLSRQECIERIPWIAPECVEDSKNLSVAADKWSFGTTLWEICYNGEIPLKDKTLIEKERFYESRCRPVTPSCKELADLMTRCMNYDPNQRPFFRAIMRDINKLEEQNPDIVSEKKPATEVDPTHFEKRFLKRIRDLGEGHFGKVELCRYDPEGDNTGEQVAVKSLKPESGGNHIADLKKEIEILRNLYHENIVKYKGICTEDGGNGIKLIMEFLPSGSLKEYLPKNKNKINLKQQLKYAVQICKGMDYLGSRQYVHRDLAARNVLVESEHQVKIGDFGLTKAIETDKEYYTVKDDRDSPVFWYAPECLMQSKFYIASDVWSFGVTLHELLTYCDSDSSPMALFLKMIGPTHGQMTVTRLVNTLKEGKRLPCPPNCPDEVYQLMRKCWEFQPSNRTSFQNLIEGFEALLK
Sequence of TYK2 (P29597 whole entry): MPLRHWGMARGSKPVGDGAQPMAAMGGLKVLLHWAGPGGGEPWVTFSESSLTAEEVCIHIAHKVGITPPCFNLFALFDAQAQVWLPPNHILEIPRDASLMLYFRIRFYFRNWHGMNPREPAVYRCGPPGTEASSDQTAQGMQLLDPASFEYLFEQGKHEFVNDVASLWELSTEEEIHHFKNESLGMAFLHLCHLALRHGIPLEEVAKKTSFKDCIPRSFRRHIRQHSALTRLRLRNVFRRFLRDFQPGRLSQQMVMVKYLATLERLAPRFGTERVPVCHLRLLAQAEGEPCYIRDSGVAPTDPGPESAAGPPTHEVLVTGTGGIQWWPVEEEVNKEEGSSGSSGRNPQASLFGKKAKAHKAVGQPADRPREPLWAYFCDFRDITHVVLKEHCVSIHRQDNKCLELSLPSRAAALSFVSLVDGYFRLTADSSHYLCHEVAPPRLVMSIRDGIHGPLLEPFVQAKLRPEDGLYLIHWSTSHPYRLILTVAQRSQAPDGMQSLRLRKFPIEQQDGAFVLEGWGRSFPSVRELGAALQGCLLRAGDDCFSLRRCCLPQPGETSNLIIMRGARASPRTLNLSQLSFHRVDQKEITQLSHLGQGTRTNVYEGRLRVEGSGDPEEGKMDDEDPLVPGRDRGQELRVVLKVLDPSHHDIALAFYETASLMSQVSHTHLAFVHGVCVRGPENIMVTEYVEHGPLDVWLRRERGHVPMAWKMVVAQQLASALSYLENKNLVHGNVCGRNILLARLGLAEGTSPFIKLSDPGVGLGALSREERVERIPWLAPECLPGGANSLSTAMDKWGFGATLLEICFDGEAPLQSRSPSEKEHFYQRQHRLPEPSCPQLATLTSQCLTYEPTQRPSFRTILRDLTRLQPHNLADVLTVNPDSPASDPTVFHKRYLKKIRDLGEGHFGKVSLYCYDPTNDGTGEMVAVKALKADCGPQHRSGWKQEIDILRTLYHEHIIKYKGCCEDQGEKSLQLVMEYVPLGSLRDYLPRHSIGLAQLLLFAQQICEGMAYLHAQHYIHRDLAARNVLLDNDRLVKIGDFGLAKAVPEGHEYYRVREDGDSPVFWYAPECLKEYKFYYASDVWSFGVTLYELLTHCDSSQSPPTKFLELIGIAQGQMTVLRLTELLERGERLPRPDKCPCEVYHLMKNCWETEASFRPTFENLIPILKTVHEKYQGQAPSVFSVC
Sequence of JAK2 (O60674 whole entry): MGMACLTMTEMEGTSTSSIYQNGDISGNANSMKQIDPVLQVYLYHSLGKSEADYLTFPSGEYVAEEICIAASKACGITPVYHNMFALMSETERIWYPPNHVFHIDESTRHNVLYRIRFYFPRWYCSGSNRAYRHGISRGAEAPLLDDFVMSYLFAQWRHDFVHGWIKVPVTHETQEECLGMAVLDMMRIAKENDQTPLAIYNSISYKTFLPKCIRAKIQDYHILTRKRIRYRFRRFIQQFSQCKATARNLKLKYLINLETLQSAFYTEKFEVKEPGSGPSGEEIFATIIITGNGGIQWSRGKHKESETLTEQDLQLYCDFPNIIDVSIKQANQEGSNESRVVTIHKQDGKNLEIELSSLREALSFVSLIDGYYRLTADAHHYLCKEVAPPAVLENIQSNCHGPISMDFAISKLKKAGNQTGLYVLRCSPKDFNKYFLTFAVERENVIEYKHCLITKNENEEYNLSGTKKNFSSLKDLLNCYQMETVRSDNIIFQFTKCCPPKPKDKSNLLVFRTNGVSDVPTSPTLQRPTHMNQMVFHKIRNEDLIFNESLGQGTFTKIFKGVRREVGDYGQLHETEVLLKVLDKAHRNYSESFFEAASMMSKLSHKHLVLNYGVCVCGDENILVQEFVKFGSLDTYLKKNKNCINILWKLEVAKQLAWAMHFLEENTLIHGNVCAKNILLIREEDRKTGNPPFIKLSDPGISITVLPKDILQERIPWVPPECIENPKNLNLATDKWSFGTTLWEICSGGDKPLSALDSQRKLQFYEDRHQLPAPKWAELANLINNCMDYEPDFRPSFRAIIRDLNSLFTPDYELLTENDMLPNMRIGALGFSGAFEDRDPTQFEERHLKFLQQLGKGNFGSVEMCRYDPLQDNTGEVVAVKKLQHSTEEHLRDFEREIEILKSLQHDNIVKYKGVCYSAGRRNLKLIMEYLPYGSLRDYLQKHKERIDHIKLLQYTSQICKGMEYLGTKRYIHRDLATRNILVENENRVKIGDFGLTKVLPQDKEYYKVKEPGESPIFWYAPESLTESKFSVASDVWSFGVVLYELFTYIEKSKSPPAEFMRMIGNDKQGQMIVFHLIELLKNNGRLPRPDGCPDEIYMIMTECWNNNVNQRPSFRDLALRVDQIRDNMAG

Cc1cc(Nc2cc3ncccc3c(N[C@@H]3C[C@H]4CCC[C@@H](C3)N4S(=O)(=O)c3cccnc3)n2)n[nH]1 [Example 8, N^7-(5-methyl-1H-pyrazol-3-yl)-N-((1R,3s,5S)-9-(pyridin-3-ylsulfonyl)-9-azabicyclo[3.3.1]nonan-3-yl)-1,6-naphthyridine-5,7-diamine]
absorption at the portal vein (Fa %) [1]: less than 10%
DAI score as compared with vehicle treated animals [2]: statistically significant decrease

C[C@@H]1CCN(C(=O)CC#N)C[C@@H]1N(C)c1ncnc2[nH]ccc12 [tofacitinib, reference compound]
B and T cell populations (spleen) [3]: No treatment effect

CCS(=O)(=O)N1[C@@H]2CC[C@H]1C[C@H](Nc1nc(Nc3cc(C)[nH]n3)cc3nc(CN4CCOCC4)ccc13)C2 [Example 5-16]
BEAS2B pIC50 [4, 7]: B (B represents a pEC50 value between 6.7 and 7.5 (EC50 between 200 nM and 32 nM))
THP-1 IL4 pIC50 [5, 8]: B (B represents a pEC50 value between 6.7 and 7.5 (EC50 between 200 nM and 32 nM))

Cc1cc(Nc2cc3ncccc3c(N[C@@H]3C[C@H]4CC[C@@H](C3)N4CC3(C#N)CC3)n2)n[nH]1 [Example 1-24]
BEAS2B pIC50 [4, 7]: A (A represents a pEC50 value ≥7.5 (EC50≤32 nM))
THP-1 IL4 pIC50 [5, 8]: B (B represents a pEC50 value between 6.7 and 7.5 (EC50 between 200 nM and 32 nM))

COC(=O)C1(C(=O)N2[C@@H]3CCC[C@H]2C[C@H](Nc2nc(Nc4cc(C)[nH]n4)cc4ncccc24)C3)CC1 [Example 2-21]
JAK 1 (pKi) (JAK1): B (B represents a pKi value between 9 and 10 (Ki between 1 nM and 0.1 nM))

Cc1cc(Nc2cc3ncccc3c(N[C@@H]3C[C@H]4CC[C@@H](C3)N4C(=O)C3(C)CCCC3)n2)n[nH]1 [Example 2-10]
JAK 1 (pKi) (JAK1): B (B represents a pKi value between 9 and 10 (Ki between 1 nM and 0.1 nM))
THP-1 IL4 pIC50 [5]: B (key: A represents a pEC50 value ≥7.5 (EC50≤32 nM); B represents a pEC50 value between 6.7 and 7.5 (EC50 between 200 nM and 32 nM); C represents a pEC50 value <6.7 (EC50>200 nM))

Cc1cc(Nc2cc3ncccc3c(N[C@@H]3C[C@H]4CC[C@@H](C3)N4CCC#N)n2)n[nH]1 [Form I, 3-((1R,3s,5S)-3-((7-((5-methyl-1H-pyrazol-3-yl)amino)-1,6-naphthyridin-5-yl)amino)-8-azabicyclo[3.2.1]octan-8-yl)propanenitrile]
weight gain / weight change (moisture sorption) [6]: less than 0.15%

Cc1cc(Nc2cc3ncccc3c(N[C@@H]3C[C@H]4CC[C@@H](C3)N4C(=O)c3cccnc3)n2)n[nH]1 [Example 2-14]
JAK 1 (pKi) (JAK1): B (B represents a pKi value between 9 and 10 (Ki between 1 nM and 0.1 nM))
THP-1 IL4 pIC50 [5]: C (key: A represents a pEC50 value ≥7.5 (EC50≤32 nM); B represents a pEC50 value between 6.7 and 7.5 (EC50 between 200 nM and 32 nM); C represents a pEC50 value <6.7 (EC50>200 nM))

Cc1cc(Nc2cc3ncccc3c(N[C@@H]3C[C@H]4CC[C@@H](C3)N4Cc3cccc(O)c3)n2)n[nH]1 [Example 1-19]
Tyk 2 (pKi) (TYK2): C (C represents a pKi value between 7 and 9 (Ki between 100 nM and 1 nM))
THP-1 IL4 pIC50 [5, 8]: B (B represents a pEC50 value between 6.7 and 7.5 (EC50 between 200 nM and 32 nM))

Cc1cc(Nc2cc3ncccc3c(N[C@@H]3C[C@H]4CC[C@@H](C3)N4CC(F)(F)F)n2)n[nH]1 [Example 1-14]
BEAS2B pIC50 [4, 7]: A (A represents a pEC50 value ≥7.5 (EC50≤32 nM))
JAK 1 (pKi) (JAK1): B (B represents a pKi value between 9 and 10 (Ki between 1 nM and 0.1 nM))
JAK 2 (pKi) (JAK2): B (B represents a pKi value between 9 and 10 (Ki between 1 nM and 0.1 nM))
Tyk 2 (pKi) (TYK2): B (B represents a pKi value between 9 and 10 (Ki between 1 nM and 0.1 nM))
THP-1 IL4 pIC50 [5, 8]: A (A represents a pEC50 value ≥7.5 (EC50≤32 nM))

Cc1cc(Nc2cc3ncccc3c(N[C@@H]3C[C@H]4CCC[C@@H](C3)N4CC(F)(F)F)n2)n[nH]1 [Example 1-45]
JAK 1 (pKi) (JAK1): B (B represents a pKi value between 9 and 10 (Ki between 1 nM and 0.1 nM))
JAK 2 (pKi) (JAK2): B (B represents a pKi value between 9 and 10 (Ki between 1 nM and 0.1 nM))
Tyk 2 (pKi) (TYK2): B (B represents a pKi value between 9 and 10 (Ki between 1 nM and 0.1 nM))

Cc1cc(Nc2cc3ncccc3c(N[C@@H]3C[C@H]4CCC[C@@H](C3)N4C(=O)C3(C)CCCC3)n2)n[nH]1 [Example 2-23]
JAK 1 (pKi) (JAK1): B (B represents a pKi value between 9 and 10 (Ki between 1 nM and 0.1 nM))

Cc1cc(Nc2cc3nc(CO)ccc3c(N[C@@H]3C[C@H]4CC[C@@H](C3)N4C(=O)OCC(C)C)n2)n[nH]1 [Example 12, Isobutyl (1R,3s,5S)-3-((2-(hydroxymethyl)-7-((5-methyl-1H-pyrazol-3-yl)amino)-1,6-naphthyridin-5-yl)amino)-8-azabicyclo[3.2.1]octane-8-carboxylate]
absorption at the portal vein (Fa %) [1]: less than 10%
DAI score as compared with vehicle treated animals [2]: statistically significant decrease

CCC(=O)N1[C@@H]2CC[C@H]1C[C@H](Nc1nc(Nc3cc(C)[nH]n3)cc3ncccc13)C2 [Example 2-1]
BEAS2B pIC50 [4, 7]: B (B represents a pEC50 value between 6.7 and 7.5 (EC50 between 200 nM and 32 nM))
DAI score as compared with vehicle treated animals [2]: did not exhibit a statistically significant decrease
THP-1 IL4 pIC50 [5, 8]: B (B represents a pEC50 value between 6.7 and 7.5 (EC50 between 200 nM and 32 nM))

CCC1(S(=O)(=O)N2[C@@H]3CCC[C@H]2C[C@H](Nc2nc(Nc4cc(C)[nH]n4)cc4ncccc24)C3)CC1 [Example 4-20]
BEAS2B pIC50 [4]: A (key: A represents a pEC50 value ≥7.5 (EC50≤32 nM); B represents a pEC50 value between 6.7 and 7.5 (EC50 between 200 nM and 32 nM); C represents a pEC50 value <6.7 (EC50>200 nM))
